Data as given in patent US9448243B2, “Weak affinity chromatography” (priority 2013, dated 2016).
pKd: −log10 of the molar value.

Experiments:
[1] = biological target: human serum albumin (HSA) (Homo sapiens, UniProt P02768); assay: Weak affinity chromatography of steroids on HSA column; format: binding; settings: for k′ (capacity factor), Column D: HSA 99% purity, 118 mg/g silica, 20° C.; for pKd: Kd, Column D, HSA 99% purity column
Experimental: (§1) Four columns were prepared, a blank diol-silica column (column A) having no binding ligands and 3 columns (columns B, C, D) loaded with albumin as the binding ligand. Column B was a silica packed column (7 μm, 300 Å porosity) loaded with 96% purity bovine serum albumin (BSA) at a concentration of 66 mg of BSA per gram of silica. Column C was a silica packed column (7 μm, 300 Å porosity) loaded with 99% purity bovine serum albumin (BSA) at a concentration of 77 mg of BSA per gram of silica. Column D was a silica packed column (7 μm, 300 Å porosity) loaded with 99% purity human serum albumin (HSA) at a concentration of 118 mg of HSA per gram of silica. All four column dimensions were 2.1×50 mm stainless steel. Immobilization of the ligands was performed batchwise with periodate activation. 0.5 g of diol-silica was used with 5 ml of H2O added. The silica was sonicated for 2 minutes, and 0.5 g of periodic acid was added to convert the diol groups to aldehyde-groups. After 2 hours of mixing, the aldehyde-silica was washed with 100 mM phosphate, pH 7.0. 5 ml of the respective ligand in 100 mM phosphate buffer, pH 7.0, was prepared. Ligand concentration was 10 mg/ml. 250 μl NaCNBH3, concentration of 0.1 mg/ml, was added. Coupling time was 40 hours at room temperature (22° C.) on mixing table.
(§2) The system comprised the columns used in an Agilent 1200-LC-MS system. The steroids were all dissolved in ethanol at a concentration of 0.05 μg/μl. 2 μl samples were run in duplicate. Solvent buffers used included phosphate buffered saline (PBS) at pH 7.4 and 5 mM ammonium-acetate (Am-Ac) salt, pH 6.9. Column temperature was 20° C. with a flow rate of 0.400 ml/min. Detection included the use of UV diode-array detector (DAD) at 237 nm.
(§3) The columns were tested with the PBS buffer and the Am-Ac listed above. The capacity factor (k′) and dissociation constant (Kd) were determined as set forth in U.S. Pat. No. 4,879,247 issued on Nov. 7, 1989 to Sten Ohlson, which is hereby incorporated by reference in its entirety.

[2] = biological target: bovine serum albumin (BSA) (Bos taurus, UniProt P02769); assay: Weak affinity chromatography of steroids on BSA columns (columns B, C); format: binding; settings: for k′ (capacity factor), Column B: 66 mg/g silica; for k′ (capacity factor), Column B / k′ (capacity factor), Column C: 20° C.; for k′ (capacity factor), Column C: 77 mg/g silica; for pKd: Kd
Experimental: as §1, §2, §3

[3] = Column B, 5 mM Am-Ac buffer pH 6.9, BSA 96% purity
[4] = Column B, PBS buffer pH 7.4, BSA 96% purity
[5] = Column C, 5 mM Am-Ac buffer pH 6.9, BSA 99% purity
[6] = Column C, PBS buffer pH 7.4, BSA 99% purity

Sequence of bovine serum albumin (BSA) (P02769 25-607): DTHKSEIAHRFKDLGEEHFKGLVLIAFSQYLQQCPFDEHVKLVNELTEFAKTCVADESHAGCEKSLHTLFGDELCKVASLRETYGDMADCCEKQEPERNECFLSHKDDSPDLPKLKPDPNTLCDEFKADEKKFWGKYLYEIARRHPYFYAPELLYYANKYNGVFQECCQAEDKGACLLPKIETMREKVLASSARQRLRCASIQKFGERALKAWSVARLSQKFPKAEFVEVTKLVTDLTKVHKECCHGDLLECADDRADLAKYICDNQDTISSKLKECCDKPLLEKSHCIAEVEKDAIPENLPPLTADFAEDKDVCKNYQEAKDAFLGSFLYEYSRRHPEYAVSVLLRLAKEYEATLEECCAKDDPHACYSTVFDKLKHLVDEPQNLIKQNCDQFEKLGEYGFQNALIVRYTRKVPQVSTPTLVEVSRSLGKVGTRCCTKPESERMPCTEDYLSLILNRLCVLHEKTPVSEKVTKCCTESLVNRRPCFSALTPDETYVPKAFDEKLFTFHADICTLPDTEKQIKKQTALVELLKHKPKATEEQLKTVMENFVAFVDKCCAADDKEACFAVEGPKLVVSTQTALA
Sequence of human serum albumin (HSA) (P02768 25-609): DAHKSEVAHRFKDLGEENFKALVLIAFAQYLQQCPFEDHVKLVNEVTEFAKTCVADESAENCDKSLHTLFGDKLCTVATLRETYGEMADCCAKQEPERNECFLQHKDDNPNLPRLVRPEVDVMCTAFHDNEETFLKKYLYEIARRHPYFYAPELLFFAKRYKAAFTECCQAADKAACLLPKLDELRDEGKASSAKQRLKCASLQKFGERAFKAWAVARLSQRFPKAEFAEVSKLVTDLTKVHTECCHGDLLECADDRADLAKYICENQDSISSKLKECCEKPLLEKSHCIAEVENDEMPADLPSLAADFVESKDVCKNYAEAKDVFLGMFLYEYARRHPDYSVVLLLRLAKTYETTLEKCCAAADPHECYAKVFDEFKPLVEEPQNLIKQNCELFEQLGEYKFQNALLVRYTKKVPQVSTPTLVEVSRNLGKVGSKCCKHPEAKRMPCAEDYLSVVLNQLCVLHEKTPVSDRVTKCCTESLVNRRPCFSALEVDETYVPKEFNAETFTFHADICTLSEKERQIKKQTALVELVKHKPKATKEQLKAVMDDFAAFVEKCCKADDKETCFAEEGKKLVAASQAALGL

k′ (capacity factor), Column D ([1]; 5 mM Am-Ac buffer pH 6.9)	k′ (capacity factor), Column D ([1]; PBS buffer pH 7.4)	k′ (capacity factor), Column B ([2]; 5 mM Am-Ac buffer pH 6.9, BSA 96% purity)	k′ (capacity factor), Column C ([2]; 5 mM Am-Ac buffer pH 6.9, BSA 99% purity)	k′ (capacity factor), Column B ([2]; PBS buffer pH 7.4, BSA 96% purity)	k′ (capacity factor), Column C ([2]; PBS buffer pH 7.4, BSA 99% purity)	SMILES	pKd ([1]; 5 mM Am-Ac buffer pH 6.9)	pKd ([1]; PBS buffer pH 7.4)	pKd [2, 3]	pKd [2, 4]	pKd [2, 5]	pKd [2, 6]
1.78	1.74	1.01	1.17	1.07	1.23	C[C@]12C=CC(=O)C=C1CC[C@@H]1[C@@H]2C(=O)C[C@@]2(C)[C@H]1CC[C@]2(O)C(=O)CO [Prednisone, prednisone]	3.28	3.29	3.54	3.56	3.59	3.60
						C[C@]12C=CC(=O)C=C1CC[C@@H]1[C@@H]2[C@@H](O)C[C@@]2(C)[C@H]1CC[C@]2(O)C(=O)CO [Prednisolone, prednisolone]	3.22	3.22	3.59	3.64	3.64	3.67
